Measured values from patent publication US20220324835A1 (Nurix Therapeutics, Inc., priority 2018, published 2022).

molecular target: Cbl-b (Homo sapiens, UniProt Q13191); assay: Cbl-b activity assay (Cbl-b inhibition assay), TR-FRET of Cbl-b interaction with UbcH5B-Ub; type: biochemical; conditions: * assay buffer containing 50 mM NaCl instead of 100 mM NaCl and 30 nM Src kinase instead of 60 nM; read-out: Cbl-b activity IC50 (μM)*
Description: The ability of candidate compounds to inhibit Cbl-b activity was measured by monitoring the interaction of Cbl-b with UbcH5B-Ub in the presence of the candidate compound.
Fluorescently labeled UbcH5B-Ub was prepared by conjugating ubiquitin (Ub), labeled at its N-terminus with Bodipy-Fluorescein, to UbcH5B, an E2 enzyme, harboring a cysteine to lysine mutation at position 85. […] After incubation in the presence of the candidate compound, the plate was incubated for an additional 1.5 hours in the presence of 60 nM Src kinase with 1 mM ATP and 5 mM MgCl2 (final concentrations). […] The plate was incubated for 1 hour.
Column marked with an asterisk (*) were tested as described above with assay buffer containing 50 mM NaCl instead of 100 mM NaCl and 30 nM Src kinase instead of 60 nM Src kinase. The resulting data for the Cbl-b binding assay was solvent corrected and double referenced prior to analysis. All data were globally fit to a steady-state affinity and kinetic binding model where applicable). Fit parameters were derived from a 1:1 binding model using the Biacore T200 Evaluation Software V2.0 (GE Healthcare) (Table 2).

Cbl-b, sequence (Q13191 36-427): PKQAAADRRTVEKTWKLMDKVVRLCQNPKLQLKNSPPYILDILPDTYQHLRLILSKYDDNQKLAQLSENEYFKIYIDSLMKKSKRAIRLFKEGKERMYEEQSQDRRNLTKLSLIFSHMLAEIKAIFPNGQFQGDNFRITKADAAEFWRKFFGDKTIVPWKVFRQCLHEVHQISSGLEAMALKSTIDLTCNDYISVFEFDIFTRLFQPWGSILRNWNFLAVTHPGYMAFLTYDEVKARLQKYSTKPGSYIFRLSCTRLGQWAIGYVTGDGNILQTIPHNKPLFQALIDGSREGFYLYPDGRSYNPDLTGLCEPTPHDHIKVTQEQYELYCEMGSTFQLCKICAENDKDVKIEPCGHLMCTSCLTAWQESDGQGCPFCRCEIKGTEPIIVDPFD

Structure (SMILES)	IC50
Cc1ccc2cc(C(=O)Nc3cccc(C(C)Sc4nncn4C)c3)cnc2c1 (stereo not drawn) [Compound 15, 7-Methyl-N-(3-(1-(4-methyl-4H-1,2,4-triazol-3-ylthio)ethyl)phenyl)quinoline-3-carboxamide]	> 10 µM
CC(Sc1nncn1C)c1cccc(NC(=O)c2ccc3ccc(Cl)cc3n2)c1 (stereo not drawn) [Compound 16, 7-Chloro-N-(3-(1-((4-methyl-4H-1,2,4-triazol-3-yl)thio)ethyl)phenyl)quinoline-2-carboxamide]	3 to 10 µM
CC(Sc1nncn1C)c1cccc(NC(=O)c2ccc3cccnc3n2)c1 (stereo not drawn) [Compound 18, N-(3-(1-((4-Methyl-4H-1,2,4-triazol-3-yl)thio)ethyl)phenyl)-1,8-naphthyridine-2-carboxamide]	3 to 10 µM
CC(Sc1nncn1C)c1cccc(NC(=O)c2cc3ccncc3cn2)c1 (stereo not drawn) [Compound 19, N-(3-(1-((4-Methyl-4H-1,2,4-triazol-3-yl)thio)ethyl)phenyl)-2,7-naphthyridine-3-carboxamide]	3 to 10 µM
CC(Sc1nncn1C)c1cccc(NC(=O)c2ccc3ncccc3n2)c1 (stereo not drawn) [Compound 20, N-(3-(1-((4-Methyl-4H-1,2,4-triazol-3-yl)thio)ethyl)phenyl)-1,5-naphthyridine-2-carboxamide]	3 to 10 µM
Cc1ccc2ccc(C(=O)Nc3cccc(C(C)Sc4nncn4C)c3)nc2n1 (stereo not drawn) [Compound 21, 7-Methyl-N-(3-(1-((4-methyl-4H-1,2,4-triazol-3-yl)thio)ethyl)phenyl)-1,8-naphthyridine-2-carboxamide]	> 10 µM
CC(Sc1nncn1C)c1cccc(NC(=O)c2cc3ccccc3c(=O)[nH]2)c1 (stereo not drawn) [Compound 22, N-(3-(1-((4-Methyl-4H-1,2,4-triazol-3-yl)thio)ethyl)phenyl)-1-oxo-1,2-dihydroisoquinoline-3-carboxamide]	> 10 µM
CC(Sc1nncn1C)c1cccc(NC(=O)c2cc3c(cn2)CCCC3)c1 (stereo not drawn) [Compound 24, N-(3-(1-((4-Methyl-4H-1,2,4-triazol-3-yl)thio)ethyl)phenyl)-5,6,7,8-tetrahydroisoquinoline-3-carboxamide]	3 to 10 µM
CC(Sc1nncn1C)c1cccc(NC(=O)c2cc3ccc(Cl)cc3cn2)c1 (stereo not drawn) [Compound 25, 7-Chloro-N-(3-(1-((4-methyl-4H-1,2,4-triazol-3-yl)thio)ethyl)phenyl)isoquinoline-3-carboxamide]	1 to 3 µM
Cc1ccc(C(=O)Nc2cccc([C@H](C)Sc3nncn3C)c2)cc1C [Compound 27, (S)-3,4-Dimethyl-N-(3-(1-((4-methyl-4H-1,2,4-triazol-3-yl)thio)ethyl)phenyl)benzamide]	3 to 10 µM
Cc1cc(C(=O)Nc2cccc([C@H](C)Sc3nncn3C)c2)ccc1Cl [Compound 28, (S)-4-Chloro-3-methyl-N-(3-(1-((4-methyl-4H-1,2,4-triazol-3-yl)thio)ethyl)phenyl)benzamide]	1 to 3 µM
Cc1cnc(C(=O)Nc2cccc([C@H](C)Sc3nncn3C)c2)cc1C [Compound 36, (S)-4,5-Dimethyl-N-(3-(1-((4-methyl-4H-1,2,4-triazol-3-yl)thio)ethyl)phenyl)picolinamide]	1 to 3 µM
CC(C)c1ccnc(C(=O)Nc2cccc([C@H](C)Sc3nncn3C)c2)c1 [Compound 37, (S)-4-Isopropyl-N-(3-(1-((4-methyl-4H-1,2,4-triazol-3-yl)thio)ethyl)phenyl)picolinamide]	3 to 10 µM
CC(Sc1nccn1C)c1cccc(NC(=O)c2cc3ccccc3cn2)c1 (stereo not drawn) [Compound 100, N-[3-[1-(1-methylimidazol-2-yl)sulfanylethyl]phenyl]isoquinoline-3-carboxamide]	3 to 10 µM
CC(Sc1nccn1C)c1ccc(F)c(NC(=O)c2cccc(C(F)(F)F)n2)c1 (stereo not drawn) [Compound 101, N-[2-fluoro-5-[1-(1-methylimidazol-2-yl)sulfanylethyl]phenyl]-6-(trifluoro-methyl)pyridine-2-carboxamide]	3 to 10 µM
C[C@@H](Sc1nncn1C)c1ccnc(NC(=O)c2cccc(C(F)(F)F)n2)c1 [Compound 102a, (R)-N-(4-(1-((4-methyl-4H-1,2,4-triazol-3-yl)thio)ethyl)pyridin-2-yl)-6-(trifluoromethyl)picolinamide]	3 to 10 µM
CC(Sc1nncn1C)c1cc(CO)cc(NC(=O)c2ccc3ccccc3n2)c1 (stereo not drawn) [Compound 132, N-(3-(hydroxymethyl)-5-(1-(4-methyl-4H-1,2,4-triazol-3-ylthio)ethyl)phenyl)quinoline-2-carboxamide]	> 10 µM
CC(Sc1nncn1C)c1cccc(N2Cc3ccccc3C2=O)c1 (stereo not drawn) [Compound 162, 2-[3-[1-[(4-methyl-1,2,4-triazol-3-yl)sulfanyl]ethyl]phenyl]isoindolin-1-one]	3 to 10 µM
CC(Sc1nncn1C)c1cccc(N2Cc3c(cccc3C(F)(F)F)C2=O)c1 (stereo not drawn) [Compound 166, 2-(3-(1-((4-methyl-4H-1,2,4-triazol-3-yl)thio)ethyl)phenyl)-4-(trifluoromethyl)isoindolin-1-one]	0.301 to 1 µM
CC(Sc1nncn1C)c1ccnc(N2Cc3ccccc3C2=O)c1 (stereo not drawn) [Compound 171, 2-(4-(1-((4-methyl-4H-1,2,4-triazol-3-yl)thio)ethyl)pyridin-2-yl)isoindolin-1-one]	3 to 10 µM

same assay, conditions: assay buffer with 100 mM NaCl, 60 nM Src kinase; read-out: Cbl-b activity IC50

Structure (SMILES)	IC50
Cn1cnnc1C(F)[C@@](C)(F)c1cccc(N2Cc3c(cccc3C(F)(F)F)C2=O)c1 (stereo in doubt) [Compound 478b, 2-(3-((1R,2S)-1,2-difluoro-1-(4-methyl-4H-1,2,4-triazol-3-yl)propan-2-yl)phenyl)-4-(trifluoromethyl)isoindolin-1-one]	1 to 3 µM
C[C@@H](Sc1nncn1C)c1ccc(F)c(N2Cc3c(cccc3C(F)(F)F)C2=O)c1 [Compound 170, 2-[2-Fluoro-5-[(1R)-1-[(4-methyl-1,2,4-triazol-3-yl)sulfanyl]ethyl]phenyl]-4-(trifluoromethyl)isoindolin-1-one]	> 10 µM
C[C@@H](Cc1n[nH]cc1CO)c1cccc(N2Cc3c(cccc3C(F)(F)F)C2=O)c1 [Compound 271a, (S)-2-(3-(1-(4-(hydroxymethyl)-1H-pyrazol-3-yl)propan-2-yl)phenyl)-4-(trifluoromethyl)isoindolin-1-one]	> 10 µM
Cc1[nH]cnc1C[C@@H](C)c1cccc(N2Cc3c(cccc3C(F)(F)F)C2=O)c1 [Compound 272a, 2-[3-[(2R)-1-(5-methyl-1H-imidazol-4-yl)propan-2-yl]phenyl]-4-(trifluoromethyl)isoindolin-1-one]	0.1 to 0.3 µM
Cc1cnnn1C[C@H](C)c1cccc(NC(=O)c2cccc(C(F)(F)F)n2)c1 [Compound 312b, (R)-N-(3-(1-(5-methyl-1H-1,2,3-triazol-1-yl)propan-2-yl)phenyl)-6-(trifluoromethyl)picolinamide]	1 to 3 µM
C[C@H](Cc1nncn1C)c1cc(NC2(C)COC2)nc(N2Cc3c(cccc3C(F)(F)F)C2=O)c1 [Compound 349, 2-{4-[(2R)-1-(4-methyl-4H-1,2,4-triazol-3-yl)propan-2-yl]-6-[(3-methyloxetan-3-yl)amino]pyridin-2-yl}-4-(trifluoromethyl)-2,3-dihydro-1H-isoindol-1-one]	0.301 to 1 µM
Cc1conc1C[C@H](C)c1cccc(N2Cc3c(cccc3C(F)(F)F)C2=O)c1 [Compound 367b, (S)-2-(3-(1-(4-methylisoxazol-3-yl)propan-2-yl)phenyl)-4-(trifluoromethyl)isoindolin-1-one]	1 to 3 µM
